# Assay results reported in patent publication US20090018134A1, “Compounds - 945” (AstraZeneca AB, priority 2007, published 2009).
# Biological target: T1, mTOR (Homo sapiens, UniProt P42345)
# T1 construct: FLAG; made in house
# Assay: In Vitro mTOR Kinase Assay (Echo), Test (a)(ii)
# Format: biochemical
# Settings: table of enzyme assay Test (a)(ii); read-out: Test (a)(ii) IC50
# Outline: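 Inhibition of truncated mTOR (1362-2549, FLAG-tagged, purified from stably transfected HEK293 cells) is measured as reduced AlphaScreen signal from a phospho-T389-recognising antibody bound to the biotinylated peptide product. Kinase incubation lasts 2 hours at room temperature. Potency is given as IC50.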
# T1 sequence (P42345 1362-2549): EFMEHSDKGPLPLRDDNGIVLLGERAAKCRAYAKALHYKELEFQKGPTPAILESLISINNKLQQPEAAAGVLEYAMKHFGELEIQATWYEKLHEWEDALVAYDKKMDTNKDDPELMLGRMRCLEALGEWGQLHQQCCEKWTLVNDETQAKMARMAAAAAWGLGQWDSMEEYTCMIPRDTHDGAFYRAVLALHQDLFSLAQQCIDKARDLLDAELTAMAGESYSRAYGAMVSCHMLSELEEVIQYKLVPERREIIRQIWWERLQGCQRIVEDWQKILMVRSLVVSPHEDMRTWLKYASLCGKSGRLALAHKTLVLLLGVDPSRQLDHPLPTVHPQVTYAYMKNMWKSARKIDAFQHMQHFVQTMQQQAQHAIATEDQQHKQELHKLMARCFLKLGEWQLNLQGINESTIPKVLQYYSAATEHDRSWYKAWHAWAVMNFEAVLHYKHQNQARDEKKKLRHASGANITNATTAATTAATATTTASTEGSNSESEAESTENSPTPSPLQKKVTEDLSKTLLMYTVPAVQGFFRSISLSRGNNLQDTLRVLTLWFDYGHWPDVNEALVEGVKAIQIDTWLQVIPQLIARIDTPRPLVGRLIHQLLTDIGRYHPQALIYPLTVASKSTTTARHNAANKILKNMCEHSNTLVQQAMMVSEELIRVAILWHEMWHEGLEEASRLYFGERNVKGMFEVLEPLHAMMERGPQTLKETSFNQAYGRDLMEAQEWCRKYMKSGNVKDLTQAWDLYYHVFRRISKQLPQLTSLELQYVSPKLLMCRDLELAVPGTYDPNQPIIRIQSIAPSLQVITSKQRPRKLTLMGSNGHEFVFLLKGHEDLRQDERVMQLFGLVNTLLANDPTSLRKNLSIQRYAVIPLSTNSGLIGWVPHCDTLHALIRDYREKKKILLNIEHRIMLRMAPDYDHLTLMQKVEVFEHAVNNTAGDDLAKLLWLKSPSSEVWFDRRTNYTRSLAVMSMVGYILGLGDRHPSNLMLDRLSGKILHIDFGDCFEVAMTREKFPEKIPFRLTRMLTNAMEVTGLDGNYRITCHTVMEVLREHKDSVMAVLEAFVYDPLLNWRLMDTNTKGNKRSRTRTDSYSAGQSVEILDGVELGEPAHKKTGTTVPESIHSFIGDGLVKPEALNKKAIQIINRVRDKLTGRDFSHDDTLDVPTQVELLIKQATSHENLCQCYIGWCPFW
row,IC50,Structure (SMILES)
1,5.29 nM,"Cc1csc(S(=O)(=O)C2(c3cc(N4CCOC[C@@H]4C)nc(-c4ccc(NC(=O)N[C@@H](C)CO)cc4)n3)CC2)n1 [Example 64ac, 3-[(2S)-1-hydroxypropan-2-yl]-1-[4-[4-[(3S)-3-methylmorpholin-4-yl]-6-[1-[(4-methyl-1,3-thiazol-2-yl)sulfonyl]cyclopropyl]pyrimidin-2-yl]phenyl]urea]"
2,2.13 nM,"Cc1csc(S(=O)(=O)C2(c3cc(N4CCOC[C@@H]4C)nc(-c4ccc(NC(=O)NCCF)cc4)n3)CC2)n1 [Example 64ae, 3-(2-fluoroethyl)-1-[4-[4-[(3S)-3-methylmorpholin-4-yl]-6-[1-[(4-methyl-1,3-thiazol-2-yl)sulfonyl]cyclopropyl]pyrimidin-2-yl]phenyl]urea]"
3,3.39 nM,"C[C@H]1COCCN1c1cc(C2(S(=O)(=O)c3ccccn3)CC2)nc(-c2ccc(NC(=O)NCC(F)F)cc2)n1 [Example 64af, 3-(2,2-difluoroethyl)-1-[4-[4-[(3S)-3-methylmorpholin-4-yl]-6-(1-pyridin-2-ylsulfonylcyclopropyl)pyrimidin-2-yl]phenyl]urea]"
4,2.81 nM,"C[C@H]1COCCN1c1cc(C2(S(=O)(=O)c3ccccn3)CC2)nc(-c2ccc(NC(=O)Nc3ccon3)cc2)n1 [Example 64ag, 1-[4-[4-[(3S)-3-methylmorpholin-4-yl]-6-(1-pyridin-2-ylsulfonylcyclopropyl)pyrimidin-2-yl]phenyl]-3-(1,2-oxazol-3-yl)urea]"
5,6.84 nM,"C[C@H]1COCCN1c1cc(C2(S(=O)(=O)c3ccc(Cl)cc3)CC2)nc(-c2ccc(NC(=O)NCC(F)F)cc2)n1 [Example 64ah, 1-[4-[4-[1-(4-chlorophenyl)sulfonylcyclopropyl]-6-[(3S)-3-methylmorpholin-4-yl]pyrimidin-2-yl]phenyl]-3-(2,2-difluoroethyl)urea]"
6,5.67 nM,"C[C@H]1COCCN1c1cc(C2(S(=O)(=O)c3ccc(Cl)cc3)CC2)nc(-c2ccc(NC(=O)Nc3ccon3)cc2)n1 [Example 64ai, 1-[4-[4-[1-(4-chlorophenyl)sulfonylcyclopropyl]-6-[(3S)-3-methylmorpholin-4-yl]pyrimidin-2-yl]phenyl]-3-(1,2-oxazol-3-yl)urea]"
7,7.78 nM,"C[C@H]1COCCN1c1cc(C2(S(=O)(=O)CCCO)CC2)nc(-c2ccc(NC(=O)NCCF)cc2)n1 [Example 64aj, 3-(2-fluoroethyl)-1-[4-[4-[1-(3-hydroxypropylsulfonyl)cyclopro-pyl]-6-[(3S)-3-methylmorpholin-4-yl]pyrimidin-2-yl]phenyl]urea]"
8,1.61 nM,"C[C@H]1COCCN1c1cc(C2(S(=O)(=O)CCCO)CC2)nc(-c2ccc(NC(=O)Nc3ccon3)cc2)n1 [Example 64ak, 1-[4-[4-[1-(3-hydroxypropylsulfonyl)cyclopro-pyl]-6-[(3S)-3-methylmorpholin-4-yl]pyrimidin-2-yl]phenyl]-3-(1,2-oxazol-3-yl)urea]"
9,5.58 nM,"C[C@H]1COCCN1c1cc(C2(S(=O)(=O)c3cnn(C(F)F)c3)CC2)nc(-c2ccc(NC(=O)NCCO)cc2)n1 [Example 64al, 1-[4-[4-[1-[1-(difluoromethyl)pyrazol-4-yl]sulfonylcyclopropyl]-6-[(3S)-3-methylmorpholin-4-yl]pyrimidin-2-yl]phenyl]-3-(2-hydroxyethyl)urea]"
10,6.78 nM,"CCNC(=O)Nc1ccc(-c2nc(N3CCOC[C@@H]3C)cc(C3(S(=O)(=O)c4ccc(OC(F)F)cc4)CC3)n2)cc1 [Example 64b, 3-[4-[4-[1-[4-(difluoromethoxy)phenyl]sulfonyl-cyclopropyl]-6-[(3S)-3-methylmorpholin-4-yl]pyrimidin-2-yl]phenyl]-1-ethylurea]"
11,2.15 nM,"C[C@H]1COCCN1c1cc(C2(S(=O)(=O)c3ccc(OC(F)F)cc3)CC2)nc(-c2ccc(NC(=O)NCCO)cc2)n1 [Example 64c, 1-[4-[4-[1-[4-(difluoromethoxy)phenyl]sulfonyl-cyclopropyl]-6-[(3S)-3-methylmorpholin-4-yl]pyrimidin-2-yl]phenyl]-3-(2-hydroxyethyl)urea]"
12,6.7 nM,"C[C@H]1COCCN1c1cc(C2(S(=O)(=O)c3ccc(OC(F)F)cc3)CC2)nc(-c2ccc(NC(=O)Nc3cnn(C)c3)cc2)n1 [Example 64d, 1-[4-[4-[1-[4-(difluoromethoxy)phenyl]sulfonyl-cyclopropyl]-6-[(3S)-3-methylmorpholin-4-yl]pyrimidin-2-yl]phenyl]-3-(1-methylpyrazol-4-yl)urea]"
13,5.37 nM,"C[C@H]1COCCN1c1cc(C2(S(=O)(=O)c3ccc(OC(F)F)cc3)CC2)nc(-c2ccc(NC(=O)NCCF)cc2)n1 [Example 64e, 1-[4-[4-[1-[4-(difluoromethoxy)phenyl]sulfonyl-cyclopropyl]-6-[(3S)-3-methylmorpholin-4-yl]pyrimidin-2-yl]phenyl]-3-(2-fluoroethyl)urea]"
14,5.21 nM,"C[C@H]1COCCN1c1cc(C2(S(=O)(=O)c3ccc(OC(F)F)cc3)CC2)nc(-c2ccc(NC(=O)NCC(F)F)cc2)n1 [Example 64f, 3-(2,2-difluoroethyl)-1-[4-[4-[1-[4-(difluoromethoxy)phenyl]sulfonyl-cyclopropyl]-6-[(3S)-3-methylmorpholin-4-yl]pyrimidin-2-yl]phenyl]urea]"
15,34.2 nM,"CNC(=O)Nc1ccc(-c2nc(N3CCOC[C@@H]3C)cc(C3(S(=O)(=O)c4ccc(F)c(F)c4)CC3)n2)cc1 [Example 64g, 1-[4-[4-[1-(3,4-difluorophenyl)sulfonylcyclopro-pyl]-6-[(3S)-3-methylmorpholin-4-yl]pyrimidin-2-yl]phenyl]-3-methylurea]"
16,1.48 nM,"CCNC(=O)Nc1ccc(-c2nc(N3CCOC[C@@H]3C)cc(C3(S(=O)(=O)c4ccc(F)c(F)c4)CC3)n2)cc1 [Example 64h, 3-[4-[4-[1-(3,4-difluorophenyl)sulfonylcyclopro-pyl]-6-[(3S)-3-methylmorpholin-4-yl]pyrimidin-2-yl]phenyl]-1-ethylurea]"
17,1.35 nM,"C[C@H]1COCCN1c1cc(C2(S(=O)(=O)c3ccc(F)c(F)c3)CC2)nc(-c2ccc(NC(=O)NC3CC3)cc2)n1 [Example 64i, 3-cyclopropyl-1-[4-[4-[1-(3,4-difluorophenyl)sulfonylcyclopro-pyl]-6-[(3S)-3-methylmorpholin-4-yl]pyrimidin-2-yl]phenyl]urea]"
18,1.2 nM,"C[C@H]1COCCN1c1cc(C2(S(=O)(=O)c3ccc(F)c(F)c3)CC2)nc(-c2ccc(NC(=O)NCCO)cc2)n1 [Example 64j, 1-[4-[4-[1-(3,4-difluorophenyl)sulfonylcyclopro-pyl]-6-[(3S)-3-methylmorpholin-4-yl]pyrimidin-2-yl]phenyl]-3-(2-hydroxyethyl)urea]"
19,1.44 nM,"C[C@H]1COCCN1c1cc(C2(S(=O)(=O)c3ccc(F)c(F)c3)CC2)nc(-c2ccc(NC(=O)Nc3cnn(C)c3)cc2)n1 [Example 64k, 1-[4-[4-[1-(3,4-difluorophenyl)sulfonylcyclopro-pyl]-6-[(3S)-3-methylmorpholin-4-yl]pyrimidin-2-yl]phenyl]-3-(1-methylpyrazol-4-yl)urea]"
20,1.11 nM,"C[C@H]1COCCN1c1cc(C2(S(=O)(=O)c3ccc(F)c(F)c3)CC2)nc(-c2ccc(NC(=O)NCCF)cc2)n1 [Example 64l, 1-[4-[4-[1-(3,4-difluorophenyl)sulfonylcyclopro-pyl]-6-[(3S)-3-methylmorpholin-4-yl]pyrimidin-2-yl]phenyl]-3-(2-fluoroethyl)urea]"
